US20250134938A1 (priority 2023, published 2025)
In brackets after ≈: the same amount, converted by molar mass. Read-outs that look alike come from different tables or passages of the source.

Assays:
[1] = tested on: L. lactis CAB701 strain; experiment: Antibiotic resistance by E-test (MIC); format: cell-based, Lactococcus lactis subsp. lactis
Method: The value at the end of the strip pointed by the inhibitory ring was determined as the minimum inhibitory concentration (MIC).

[2] = target: T1, porcine pancreatic lipase type II (Sus scrofa, UniProt P00591); experiment: Inhibition of pancreatic lipase; format: biochemical; conditions: 1000 μg/mL; read-out: Pancreatic lipase inhibition rate (%)
T1 construct: purchased Sigma
T1 sequence (P00591 1-450): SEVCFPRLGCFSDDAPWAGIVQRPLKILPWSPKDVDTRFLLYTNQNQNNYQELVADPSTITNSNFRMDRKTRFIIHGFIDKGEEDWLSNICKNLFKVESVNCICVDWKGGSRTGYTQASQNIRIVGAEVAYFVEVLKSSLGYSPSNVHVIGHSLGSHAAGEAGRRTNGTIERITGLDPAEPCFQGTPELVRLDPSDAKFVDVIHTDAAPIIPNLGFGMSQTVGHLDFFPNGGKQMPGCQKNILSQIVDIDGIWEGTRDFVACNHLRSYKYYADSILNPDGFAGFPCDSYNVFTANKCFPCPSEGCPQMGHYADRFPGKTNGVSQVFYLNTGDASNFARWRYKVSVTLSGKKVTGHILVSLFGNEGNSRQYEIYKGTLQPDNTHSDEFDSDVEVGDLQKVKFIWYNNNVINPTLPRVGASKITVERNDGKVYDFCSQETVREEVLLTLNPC
Method: 50 mg of porcine pancreatic lipase type II (Sigma) was suspended in 10 mL of 10 mM Tris-HCl buffer adjusted to pH 8.0, vortexed for 15 minutes, and centrifuged at 4000 rpm for 10 minutes at 18° C. The supernatant was used as an enzyme solution. As a substrate, p-nitrophenyl butyrate (Sigma-Aldrich (Schnelldorf, Germany)) dissolved in acetonitrile to 10 mM was used. […] Tertiary distilled water was used as a negative control group. […] After adding 10 μL of a substrate solution, followed by reaction for 5 minutes at 37° C., absorbance was measured using a microplate reader at 405 nm, which is the maximum absorbance of p-nitrophenol. Pancreatic lipase inhibition rate (%)=[(negative control absorbance-sample absorbance)/negative control absorbance]×100

[3] = Lactococcus lactis, CAB701STRAIN, E-test, MRS agar, 37° C., 72 hours, read-out: MIC

Row | Molecule | Evaluation [1] | MIC [1, 3] [µg/mL] | Evaluation ([1]; MIC against EFSA cut-off value) | also measured
1 | CC1(C)S[C@@H]2[C@H](NC(=O)[C@H](N)c3ccccc3)C(=O)N2[C@H]1C(=O)O [Ampicillin] | Allowed | 0.094 (≈ 0.269 µM) | – | –
2 | O=C(N[C@H](CO)[C@H](O)c1ccc([N+](=O)[O-])cc1)C(Cl)Cl [Chloramphenicol] | Allowed | 1.5 (≈ 4.64 µM) | – | –
3 | CCC[C@@H]1C[C@@H](C(=O)N[C@@H]([C@H]2O[C@H](SC)[C@H](O)[C@@H](O)[C@H]2O)[C@H](C)Cl)N(C)C1 [Clindamycin] | Allowed | 0.25 (≈ 0.588 µM) | – | –
4 | CC[C@H]1OC(=O)[C@H](C)[C@@H](O[C@H]2C[C@@](C)(OC)[C@@H](O)[C@H](C)O2)[C@H](C)[C@@H](O[C@@H]2O[C@H](C)C[C@H](N(C)C)[C@H]2O)[C@](C)(O)C[C@@H](C)C(=O)[C@H](C)[C@@H](O)[C@]1(C)O [Erythromycin] | Allowed | – | – | –
5 | NC[C@H]1O[C@H](O[C@H]2[C@H](O)[C@@H](O[C@H]3O[C@H](CO)[C@@H](O)[C@H](N)[C@H]3O)[C@H](N)C[C@@H]2N)[C@H](O)[C@@H](O)[C@@H]1O [Kanamycin] | Allowed | 8 (≈ 16.5 µM) | – | –
6 | [H]/N=C(/N)N[C@H]1[C@H](O)[C@@H](O)[C@H](O[C@@H]2O[C@@H](C)[C@](O)(C=O)[C@H]2O[C@@H]2O[C@@H](CO)[C@H](O)[C@@H](O)[C@@H]2NC)[C@@H](N/C(N)=N\[H])[C@@H]1O [Streptomycin] | Allowed | 16 (≈ 27.5 µM) | – | –
7 | CN(C)[C@@H]1C(O)=C(C(N)=O)C(=O)[C@@]2(O)C(O)=C3C(=O)c4c(O)cccc4[C@@](C)(O)[C@H]3C[C@@H]12 [Tetracycline] | – | 0.094 (≈ 0.212 µM) | Allowed | –
8 | CN[C@H](CC(C)C)C(=O)N[C@H]1C(=O)N[C@@H](CC(N)=O)C(=O)N[C@H]2C(=O)N[C@H]3C(=O)N[C@H](C(=O)N[C@H](C(=O)O)c4cc(O)cc(O)c4-c4cc3ccc4O)[C@H](O)c3ccc(c(Cl)c3)Oc3cc2cc(c3O[C@@H]2O[C@H](CO)[C@@H](O)[C@H](O)[C@H]2O[C@H]2C[C@](C)(N)[C@H](O)[C@H](C)O2)Oc2ccc(cc2Cl)[C@H]1O [Vancomycin] | – | – | Allowed | MIC ([1]; Lactococcus lactis, CAB701STRAIN, 72 h): 0.38 µg/mL (≈ 0.262 µM)
9 | CCCCCCCCCCC[C@@H](C[C@@H]1OC(=O)[C@H]1CCCCCC)OC(=O)[C@H](CC(C)C)NC=O [orlistat] | – | – | – | inhibition at 1000 µg/mL (stock) [2]: 28.6 ± 6.2%
10 | Gentamicin | – | – | Allowed | minimum inhibitory concentration (MIC) ([1]; E-test): 3 µg/mL; MIC ([1]; E-test, MRS agar, 37° C., 72 hours): 3 µg/mL
